Like-named read-outs stand apart in the source and are kept apart here.
Test system: leech-derived protein according to the invention
Assay: Effect of typical inhibitors on the activity of the protein
Type: biochemical, Hirudo medicinalis
Details: for IC50: read-out: IC50 (mM), dose of inhibitor which gave half maximal inhibition
Method: Any hydrolysis of the chromogenic substrates. S2251, S2586, S2288. […] A preferred assay method is described below. Preparations for assay are reconstituated or diluted in assay buffer: 50 mM Tris, 0.2M NaCl, 0.05% casein (Hammerstan grade from British Drug Houses), 0.1% Brij 35, 0.01% sodium azide, pH8.0. Activity is det.ermined using modification of the AZOCCLL assay adapted to microtitre plates. Aliquots (100 microliters) of protein. in a range of dilutions in assay buffer, are incubated with a suspension of washed substrate (100 microliters: 10mg/ml) at 37 degrees Celsius. At the end of the incubation period which varies according to the experiment and dose of protein, the undigested substrate is sedimented by centrifugation and aliquots (100 microliters) of the supernatants transferred to another plate in which the absorbance at 560 nm is measured. Protein activity can be expressed as milliequivalent units of bacterial collagenase (Clostridium histolyticum) assayed at the same time under the same conditions.
The effect of some typical inhibitors was examined. The protein (5000 units/ml of a preparation of specific activity 10,000-20,000 units/mg) was incubated with DTT, cysteine, EDTA and leech anti-chymotrypsin in a range of concentrations with substrate. […] The effects of orthophenanthroline (2 mM): TIMP (tissue inhibitor of metallo-proteinase) 0.4 micrograms with APMA (0.5 mM) and with pre-incubation for 15 min): SBTI (7.5 micrograms and 30 min pre-incubation): and PMSF ([…] with 30 min pre-incubation) were also studied.

[1] = protein 5000 units/ml, o-phenanthroline 2 mM, TIMP 0.4 micrograms, SBTI 7.5 micrograms, PMSF single dose only

Molecule	effect of inhibitor on activity of the protein (protein 5000 units/ml)	IC50 (mM), dose of inhibitor which gave half maximal inhibition [1]	effect of inhibitor on activity of the protein	IC50	IC50 [1]
c1cnc2c(c1)ccc1cccnc12 [o-Phenanthroline]	did not inhibit activity	No effect	–	–	–
O=C(O)CN(CCN(CC(=O)O)CC(=O)O)CC(=O)O [EDTA]	–	–	destroyed activity	2 mM	–
O=S(=O)(F)Cc1ccccc1 [PMSF]	did not inhibit activity	No effect	–	–	–
[N-]=[N+]=[N-] [sodium azide]	did not inhibit activity	–	–	–	–
O[C@H](CS)[C@H](O)CS (racemic) [Dithiothreitol]	destroyed activity	–	–	–	0.2 mM
N[C@@H](CS)C(=O)O [Cysteine]	destroyed activity	–	–	–	3 mM
SBTI: soybean trypsin inhibitor (protein, UniProt P01070 25-205, looked up) Trypsin inhibitor A: DFVLDNEGNPLENGGTYYILSDITAFGGIRAAPTGNERCPLTVVQSRNELDKGIGTIISSPYRIRFIAEGHPLSLKFDSFAVIMLCVGIPTEWSVVEDLPEGPAVKIGENKDAMDGWFRLERVSDDEFNNYKLVFCPQQAEDDKCGDIGISIDHDDGTRRLVVSKNKPLVVQFQKLDKESL	did not inhibit activity	No effect	–	–	–

Source: US5587360A, “Platelet adhesion inhibitor” (Merck Patent GmbH, priority 1990, dated 1996)
